The record followed here is article PMC11571215, “Optimization of Antiproliferative Properties of Triimine Copper(II) Complexes” (Journal of Medicinal Chemistry, 2024).

Type in all cases: cell-based, human
In data set [1] the test system is HCT116-DoxR cells. The data set can be described thus: Apoptosis by Annexin V-FITC/PI flow cytometry. The conditions noted are these: 48 h, complexes at IC50, Dox 6 μM, Cis 5 μM. Here is the method: Initially, a quantitative assay with double staining using annexin V-FITC (FITC, fluorescein isothiocyanate) and propidium iodide (PI) through flow cytometry was performed.[24] Annexin V-FITC, a probe with an affinity for the ionic phospholipid phosphatidylserine (PS), predominantly located on the inner side of the plasma membrane in healthy cells, undergoes translocation to the outer plasma membrane during the early stages of apoptosis.[61],[67] In contrast, PI is a DNA intercalating agent that marks cells with compromised plasma membrane (usually in the late stages of apoptosis or in necrosis), emitting red fluorescence upon interaction with nucleic acids.[54],[68] This assay allows for distinguishing cells in four different conditions: viable cells (FITC–, PI−), early apoptosis (FITC+, PI−), late apoptosis (FITC+, PI+), and necrosis (FITC–, PI+).
The Annexin V-FITC Apoptosis Detection Kit (catalog no. V13245, Invitrogen, USA) was used in this study for the induction of apoptosis analysis. HCT116-DoxR cells were seeded in 6-well plates at a cell density of 1 × 10^5 cells/mL and incubated for 24 h, under the same conditions mentioned before. […] After this incubation period, the cells were washed with PBS 1× and trypsinized with TrypLE Express (Invitrogen). The supernatant was discarded, and the pellet was washed with PBS 1×. The cells were resuspended in 1× Annexin V-FITC binding buffer. Subsequently, the samples were incubated at room temperature (RT) with Alexa Fluor 488 annexin V and 100 μg/mL of propidium iodide (PI) in the dark for 15 min. After incubation, 1× Annexin V-FITC binding buffer was added and the samples were analyzed using an Attune Acoustic Focusing Flow Cytometer (Life Technologies, Carlsbad, USA). Results were processed with Attune Cytometric software.

Data set [2] concerns HCT116-DoxR cells. Briefly: Cell cycle progression analysis (PI, flow cytometry). As to conditions: complexes at IC50, Dox 6 μM, Cis 5 μM; 9, 12, 18, 24 h after double thymidine block. An excerpt: It is important to note that exposure to increased levels of ROS can trigger genotoxic stress, an effect often associated with chemotherapy and that may promote cell cycle arrest.[84] The cell cycle comprises a sequential set of cellular events such as checkpoints that regulate transitions between different phases when cells are under stress conditions. Indeed, if DNA damage occurs, interphase checkpoints can trigger cell cycle arrest, repair, and induction of apoptosis or senescence.[85] Indeed, data in Table 7 show some degree of accumulation of both complexes in the nucleus, which may expose the genomic DNA to their action. […] This DNA intercalating fluorophore allows the analysis of DNA content in various phases of the cell cycle (G0/G1, S, and G2/M) (the fluorescence intensity emitted by PI doubles with the duplication of DNA quantity in the G1 and G2 phases),[86] and its detection can be performed by flow cytometry. […] To ensure that all cells were in the same phase of the cell cycle (S phase) when exposed to the Cu(II) complexes and controls, a double thymidine block was applied.[83]
HCT116-DoxR cells were cultured in six-well plates at a density of 1 × 10^5 cells/mL and incubated at 37 °C, 5% (v/v) CO2, and 99% (v/v) relative humidity for 8 h. To ensure that cells were in the same phase of the cell cycle, they were subjected to a double thymidine block for synchronization. At the end of the incubation, the culture medium was replaced with 2 mM thymidine in complete medium, and cells were incubated for 16 h. After incubation, the thymidine-containing medium was replaced with a thymidine-free complete medium, and cells were incubated for an additional 8 h. After this time, a second thymidine block was applied, as described earlier. At the end of the incubation, the thymidine-containing medium was replaced with a fresh medium containing the cooper complexes at their IC50 concentration. A 0.1% (v/v) DMSO solution was used as vehicle control, while 6 μM Dox, and 5 μM Cis were used as positive controls. Cells were incubated again for 9, 12, 18, and 24 h. Immediately after exposure (0 h) and at the end of each incubation period, the medium was removed, cells detached with TrypLE Express, and centrifuged for 5 min at 650 × g, at 4 °C. The pellet was resuspended in cold PBS 1× and centrifuged at 3000 × g for 5 min, at 4 °C. Later, the pellet was resuspended in cold PBS 1×, and 1 mL of 80% (v/v) cold ethanol was added dropwise to each tube. […] The DNA content was evaluated on an Attune acoustic focusing flow cytometer (Life Technologies, Carlsbad, USA), and the results were analyzed by the respective software (Attune Cytometric software).

The test system of data set [3] is HCT116 cells (colorectal carcinoma). The data set can be described thus: MTS cell viability assay, HCT116 2D. As to conditions: for IC50: 48 h of exposure, MTS, relative IC50, mean + SEM; for SI HCT116: ratio IC50 fibroblasts / IC50 HCT116. Here is the method: The antiproliferative effect of the Cu(II) complexes in tumor and healthy cell lines was assessed through the MTS assay, a colorimetric method that is widely used to evaluate cellular viability, specifically mitochondrial viability.[53],[54] Cellular viability was determined after 48 h exposure to a concentration range (0.1–50 μM) of Cu(II) complexes in three tumor cell lines. […] Additionally, the viability of healthy primary dermal fibroblasts was performed as a comparison of the complexes’ antiproliferative effects in normal cells.
Cellular viability assays were performed using HCT116, HCT116-DoxR, and A2780 cancer cell lines as well as normal human primary fibroblasts. Cells were seeded at a density of 0.75 × 10^5 cells/mL in 96-well plates and incubated at 37 °C with 5% (v/v) CO2 for 24 h. After this incubation period, the copper complexes were accurately weighed and immediately dissolved in 100% (v/v) dimethyl sulfoxide (DMSO). Subsequently, the complexes were diluted to the final concentration using a cell culture medium. The culture medium in each well was replaced with fresh medium containing varying concentrations of the complexes (ranging from 0.01 to 50 μM). Negative controls contained culture medium with 0.1% (v/v) DMSO, and positive controls contained 0.4 μM Dox.
After an additional 48 h of incubation under the same conditions, cellular viability was assessed using the CellTiter 96 Aqueous One Solution Cell Proliferation Assay kit (Promega, Madison, USA). Metabolically active cells contain mitochondrial dehydrogenases that can reduce 3-(4,5-dimethylthiazol-2-yl)-5-(3-carboxymethoxyphenyl)-2-(4-sulfophenyl)-2H-tetrazolium, the inner salt (MTS) to formazan. The absorbance of formazan, measured at 490 nm in a microplate reader (Tecan Infinite M200, Tecan, Männedorf, Switzerland), is directly proportional to the number of viable cells.[104]
The cell viability versus concentration graphics were analyzed using Prism 8 software (GraphPad) to determine the half-maximal inhibitory concentration (IC50) of each complex for the respective cell line. Additionally, the selective index (SI) for each complex was calculated by dividing the IC50 of human fibroblasts by the IC50 values of the tested cancer cell lines.

Regarding `N.N.[Cl][Pt][Cl]` [Cisplatin], in the data set on HCT116-DoxR cells [1], the early apoptosis was determined as 40.1%, the late apoptosis came out at 25.8% and the necrosis is given as 0.9% ± 1.1. In the data set on HCT116-DoxR cells [1] (listed as cisplatin), the early apoptosis is 40.1% ± 11.8 and the late apoptosis was 25.8% ± 7.7. The “effect on cell cycle progression” value with HCT116-DoxR cells [2] is recorded as “has a cytostatic effect in G2/M after incubation for 24 h”. The half-inhibitory concentration (IC50) in data set [3] was 15.6 ± 5.3 µM.

In the case of `[Cl][Cu-3]12([Cl])[n+]3ccccc3-c3cc(-c4cccc5ccccc45)cc([n+]31)-c1cccc[n+]12` [Cu1a], in the data set with HCT116-DoxR cells [1], the viable cells is given as 23.1% ± 4.5. Besides, in the data set on HCT116-DoxR cells [2], the “effect on cell cycle progression” value is “a delay in the cell cycle at the S phase after 9 h, in the G2/M after 12 h of incubation, and a delay in the cell cycle at G0/G1 at 18 h”. Moreover, in data set [3], the IC50 turned out to be 0.28 ± 0.03 µM and the “SI HCT116” value stood at 33.1.

In the case of `[Cl][Cu-3]12([Cl])[n+]3ccccc3-c3cc(-c4ccc5ccccc5c4)cc([n+]31)-c1cccc[n+]12` [Cu1b], in the data set with HCT116-DoxR cells [1], the necrosis is on record as 0.7% ± 0.6 and the viable cells was 59.3% ± 7.8. Besides, the “effect on cell cycle progression” value with HCT116-DoxR cells [2] was “a delay in the cell cycle at the S phase after 9 h, in the G2/M after 12 h of incubation, and a delay in the cell cycle at G0/G1 at 18 h”. Moreover, in data set [3], the 50% inhibitory concentration (IC50) amounted to 0.21 ± 0.05 µM and the “SI HCT116” value worked out at 63.3.

With `COc1cccc2c1C(=O)c1c(O)c3c(c(O)c1C2=O)C[C@@](O)(C(=O)CO)C[C@@H]3O[C@H]1C[C@H](N)[C@H](O)[C@H](C)O1` [Doxorubicin], in the data set on HCT116-DoxR cells [1], the early apoptosis is on record as 16.6% ± 5.5, the late apoptosis is given as 13.9% ± 1.9, the necrosis is 9.8% ± 4.0 and the viable cells was 59.8% ± 3.8. Besides, in the data set on HCT116-DoxR cells [1] (listed as Dox), the late apoptosis was determined as 13.9%, the necrosis amounted to 9.8% and the viable cells entry is recorded as “about 59.8%”. For the same compound, in the data set on HCT116-DoxR cells [2], the “effect on cell cycle progression” value is “did not affect the cell cycle progression or cause an arrest”. In addition, in data set [3] (Homo sapiens, HCT-116), the IC50 worked out at 0.5 ± 0.1 µM.
